The structures appear in SMILES notation.

Here are results for 17 compounds from US20160207930A1 (LEO PHARMA A/S, priority 2013, published 2016).

One series addresses T1, NK1 Receptor (Homo sapiens, UniProt P25103).
T1 construct: Measurement of NK1 Receptor Mediated Intracellular [Ca^2+]; Mobilization in U251 MG Cells Using FLIPR; endogenous in cells; host or cells: U251 MG cells
The experiment in a line: NK1 receptor mediated intracellular [Ca2+] mobilization in U251 MG cells using FLIPR. Format: cell-based. Conditions: antagonism of Substance P (EC80), Fluo-4, read-out: NK1R mediated intracellular [Ca^2+] mobilization IC 50. As for the experimental part: Measurement of NK1 Receptor Mediated Intracellular [Ca^2+] Mobilization in U251 MG Cells Using FLIPR
U251 MG cells were seeded into black walled clear-bottom 384-well plates (Greiner Bio-One GmbH, Frickenhausen, Germany) at a density of 15,000 cells/well in 50 μl culture medium and cultured overnight in a 37° C. 5% CO2 incubator. The cells were then loaded with the calcium sensitive dye Fluo-4 (Invitrogen) at 1 μM in buffer, containing 0.04% Pluronic F-127 (Sigma-Aldrich), and 2.5 mM probenecid (Sigma-Aldrich) for 60 min in a humidified atmosphere of 5% CO2. Thereafter, cells were washed three times in washing buffer containing 20 mM HEPES and 2.5 mM probenecid pH 7.3. Serial dilutions of test compounds in assay buffer containing 2% dimethyl sulfoxide (final concentration in the cell plate is 0.5% DMSO) and/or agonist were then automatically pipetted into each test well, and the peak fluorescence intensity was recorded (lex, 488 nm; lem, 540 nm) by the FLIPR instrument (Molecular Devices) for approximately 5 min. To measure antagonist potency, cell plates were first incubated with the test compound and intracellular fluorescence recorded for 5 minutes to check a potential agonist effect of the test compound. Cell plates were quickly removed from the FLIPR instrument and incubated for additional 10 minutes at 37° C. before being moved back to the FLIPR instrument for Substance P (EC80) addition. The response was measured as the peak relative fluorescence change after agonist addition.
Compound relative %-effect was normalized to the maximal response evoked by 100 nM Aprepitant in presence of the EC80 of Substance P and the antagonist potency determined by non-linear regression using GraphPad Prism (version 5) or the four-parameter logistic model in XLfit (IDBS, Guilford, UK) for Microsoft Excel (Microsoft, Redmond, Wash.). The IC50 value is defined as the molar concentration of a test compound that produces a response midway between the fitted top and the fitted bottom. pIC50=−log IC50
Formula is listed as follows:
Fit (% Effect calculated)=(A+((B−A)/(1+((C/X)̂D)))) • A: bottom value • B: top value • C: test compound concentration • X: Relative IC50 • D: Hill slope coefficient
Ref: Sullivan E, Tucker E M, and Dale I L. Measurement of [Ca^2+] using the Fluorometric Imaging Plate Reader (FLIPR). Methods Mol Biol 114:125-133, 1999.
Compounds of the present invention were tested according to example 100.

Series [1] can be described thus: Hepatic intrinsic clearance following incubation in human liver microsomes. Format: in vitro ADME. Conditions: 0.5 μM test compound, NADPH, 0-30 min, scaled to g liver. How it is done: Hepatic Extraction Ratio from Hepatic Intrinsic Clearance Following Incubation in Human Liver Microsomes
The general procedure consists of an automated incubation system and LC-MS/MS analysis with human liver microsomes. Human liver microsomes are thawed rapidly in a waterbath at 37° C. and kept on ice until use. The human liver microsomes are diluted with 50 mM potassium phosphate buffer pH 7.4 to a protein concentration of 0.55 mg/mL. Test compounds and positive controls (Verapamil and Dextromethorphan, positive controls for CYP3A4 for CYP2D6 isoforms, respectively) are dissolved in methanol (or other appropriate solvent, if necessary) in order to obtain a 5 mM solution which is further diluted to the concentration of 50 μM. The stock solutions are prepared immediately before the test.
5 μL of 50 μM test compounds and controls are added to 445 μL-of the 0.55 mg/mL microsomes solution and the incubation mixture are pre-warmed at 37° C. for 5 minutes. The incubation reactions are initiated by adding 50 μL of pre-warmed NADPH regenerating system to the incubation mixtures. 50 μL-aliquots will be taken from the incubation mixtures at: 0, 3, 6, 9, 15 and 30 minutes and the reactions are stopped by adding 100 μL of ACN containing Rolipram, used as generic Internal Standard (IS). Samples are then diluted with 120 μL of Milli-Q water and centrifuged at 3000 rpm for 10 minutes, prior the LC-MS/MS analysis.
The integrated peak areas for test compounds at the selected time points are divided by the respective peak areas of the IS and the percent of parent remaining is calculated by normalizing the peak area ratio of parent to IS at 0 min. Observed rate constant (kobs) for parent degradation is calculated by determining the slope of the line of the graph of the natural log of percentage parent remaining versus time of incubation. From the rate of depletion (min−1) and volume of the incubation (mL), clearance is estimated. This is scaled for the protein in the incubation relative to that in the intact liver, for all species (mL/min/g liver).
Values for the Human in vitro Clint are expressed as mL/min/g liver.
Assuming a liver weight of 25.7 g/kg and a liver blood flow of 20.7 mL/min/kg, the hepatic extraction ratio, Eh, can be derived from the Human in vitro Clint:
E.g. a Human in vitro Clint of 2.4 mL/min/g liver corresponds to a hepatic extraction ratio of 75%.
Some compounds of the present invention were tested according to example 101.

T1 sequence (P25103 whole entry): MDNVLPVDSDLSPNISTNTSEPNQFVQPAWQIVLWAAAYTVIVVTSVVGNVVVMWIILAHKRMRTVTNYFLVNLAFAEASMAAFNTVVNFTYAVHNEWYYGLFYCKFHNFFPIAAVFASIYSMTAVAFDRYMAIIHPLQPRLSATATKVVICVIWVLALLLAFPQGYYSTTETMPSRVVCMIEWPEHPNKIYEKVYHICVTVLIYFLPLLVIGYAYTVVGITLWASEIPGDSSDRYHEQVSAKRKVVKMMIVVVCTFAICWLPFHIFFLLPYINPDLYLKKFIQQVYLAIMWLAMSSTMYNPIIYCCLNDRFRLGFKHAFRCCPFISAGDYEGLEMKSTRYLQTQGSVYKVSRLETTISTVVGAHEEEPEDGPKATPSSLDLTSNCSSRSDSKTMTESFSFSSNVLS

Consider `CCc1cc([C@@H](C)N(C)C(=O)N2CCN3C(=O)CC[C@H]3[C@@H]2c2c[nH]nc2C)cc(C(F)(F)F)c1` [Compound 61, (1S,8aS)—N—((R)-1-(3-ethyl-5-(trifluoromethyl)phenyl)ethyl)-N-methyl-1-(3-methyl-1H-pyrazol-4-yl)-6-oxohexahydropyrrolo[1,2-a]pyrazine-2(1H)-carboxamide], for which the IC50 on NK1 Receptor was determined as 59 nM. Further, the “Human in vitro Clint” value in series [1] is more than 200 mL/min/g.

`Cc1ccc([C@H]2[C@@H]3CC(CCO)(CCO)C(=O)N3CCN2C(=O)N(C)[C@H](C)c2cc(Cl)cc(C(F)(F)F)c2)c(C)c1` [Compound 34, (1S,8aS)—N—((R)-1-(3-chloro-5-(trifluoromethyl)phenyl)ethyl)-1-(2,4-dimethylphenyl)-7,7-bis(2-hydroxyethyl)-N-methyl-6-oxo-hexahydropyrrolo[1,2-a]pyrazine-2(1H)-carboxamide]: the IC50 on NK1 Receptor is 0.054 nM. Moreover, the “Human in vitro Clint” value in series [1] is more than 200 mL/min/g.

For the compound `C[C@H](c1cc(C(F)(F)F)cc(C(F)(F)F)c1)N(C)C(=O)N1CCN2C(=O)CC[C@H]2[C@@H]1c1ccccc1CO` [Compound 74, (1S,8aS)—N—((R)-1-(3,5-bis(trifluoromethyl)phenyl)ethyl)-1-(2-(hydroxymethyl)phenyl)-N-methyl-6-oxohexahydropyrrolo[1,2-a]pyrazine-2(1H)-carboxamide], on NK1 Receptor, the IC50 amounted to 0.11 nM. Besides, the “Human in vitro Clint” value in series [1] was more than 200 mL/min/g.

Regarding `Cc1ccc(C2C3CC(CCO)(CCO)C(=O)N3CCN2C(=O)N(C)[C@H](C)c2cc(C(F)(F)F)cc(C(F)(F)F)c2)c(C)c1` (single isomer, unassigned) [Compound 7], at NK1 Receptor, the IC50 came out at 0.08 nM. The “Human in vitro Clint” value in series [1] is more than 200 mL/min/g.

Regarding `CCc1cc([C@@H](C)N(C)C(=O)N2CCN3C(=O)CC[C@H]3[C@@H]2c2ccc(F)cc2C)cc(C(F)(F)F)c1` [Compound 23, (1S,8aS)—N—((R)-1-(3-ethyl-5-(trifluoromethyl)phenyl)ethyl)-1-(4-fluoro-2-methylphenyl)-N-methyl-6-oxohexahydropyrrolo[1,2-a]pyrazine-2(1H)-carboxamide], at NK1 Receptor, the IC50 was found to be 0.037 nM. In addition, the “Human in vitro Clint” value in series [1] came to 78 mL/min/g.

For the compound `COc1ccc(C2C3CCC(=O)N3CCN2C(=O)N(C)[C@H](C)c2cc(C(F)(F)F)cc(C(F)(F)F)c2)c(C)c1` (single isomer, unassigned) [Compound 19], the IC50 on NK1 Receptor stood at 38.8 nM. In addition, the “Human in vitro Clint” value in series [1] is more than 200 mL/min/g.

Consider `Cc1ccc([C@@H]2[C@H]3CCC(=O)N3CCN2C(=O)N(C)Cc2cc(C(F)(F)F)cc(C(F)(F)F)c2)c(C)c1` (racemic) [Compound 3, N-(3,5-bis(trifluoromethyl)benzyl)-1-(2,4-dimethylphenyl)-N-methyl-6-oxohexahydropyrrolo[1,2-a]pyrazine-2(1H)-carboxamide], for which the IC50 at NK1 Receptor was determined as 0.297 nM. In series [1], the “Human in vitro Clint” value is more than 200 mL/min/g.

`Cc1cc(O)ccc1[C@H]1[C@@H]2CCC(=O)N2CCN1C(=O)N(C)[C@H](C)c1cc(C(F)(F)F)cc(C(F)(F)F)c1` [Compound 27, (1S,8aS)—N—((R)-1-(3,5-bis(trifluoromethyl)phenyl)ethyl)-1-(4-hydroxy-2-methylphenyl)-N-methyl-6-oxohexahydropyrrolo[1,2-a]pyrazine-2(1H)-carboxamide]: on NK1 Receptor, the IC50 was 0.064 nM. The “Human in vitro Clint” value in series [1] was more than 200 mL/min/g.

Consider `Cc1ccsc1[C@H]1[C@@H]2CCC(=O)N2CCN1C(=O)N(C)[C@H](C)c1cc(C(F)(F)F)cc(C(F)(F)F)c1` [Compound 50], for which the IC50 on NK1 Receptor is 0.08 nM. In series [1], the “Human in vitro Clint” value was more than 200 mL/min/g.

As for `CCc1cc([C@@H](C)N(C)C(=O)N2CCN3C(=O)C(CCO)(CCO)C[C@H]3[C@@H]2c2c[nH]nc2C)cc(C(F)(F)F)c1` [Compound 62, (1S,8aS)—N—((R)-1-(3-ethyl-5-(trifluoromethyl)phenyl)ethyl)-7,7-bis(2-hydroxyethyl)-N-methyl-1-(3-methyl-1H-pyrazol-4-yl)-6-oxohexahydropyrrolo[1,2-a]pyrazine-2(1H)-carboxamide], the IC50 on NK1 Receptor is 1.07 nM. Also, the “Human in vitro Clint” value in series [1] came to 115 mL/min/g.

As for `Cc1cc(F)ccc1C1C2CC(CCO)(CCO)C(=O)N2CCN1C(=O)N(C)[C@H](C)c1cc(Cl)cc(C(F)(F)F)c1` (single isomer, unassigned) [Compound 11], the IC50 on NK1 Receptor was determined as 0.613 nM. Also, in series [1], the “Human in vitro Clint” value is more than 200 mL/min/g.

As to `CCc1cc([C@@H](C)N(C)C(=O)N2CCN3C(=O)C(CCO)(CCO)CC3C2c2ccc(OC)cc2C)cc(C(F)(F)F)c1` (stereo partly shown) [Compound 16], on NK1 Receptor, the IC50 worked out at 0.243 nM. For the same compound, the “Human in vitro Clint” value in series [1] was more than 200 mL/min/g.

In the case of `CCc1cc([C@@H](C)N(C)C(=O)N2CCN3C(=O)CC[C@H]3[C@@H]2c2ccc(O)cc2C)cc(C(F)(F)F)c1` [Compound 28, (1S,8aS)—N—((R)-1-(3-ethyl-5-(trifluoromethyl)phenyl)ethyl)-1-(4-hydroxy-2-methylphenyl)-N-methyl-6-oxohexahydropyrrolo[1,2-a]pyrazine-2(1H)-carboxamide], the IC50 at NK1 Receptor was found to be 0.11 nM. In addition, the “Human in vitro Clint” value in series [1] is more than 200 mL/min/g.

Regarding `Cc1cc([C@@H](C)N(C)C(=O)N2CCN3C(=O)CCC3C2c2ccc(C)cc2C)cc(C(F)(F)F)c1` (single isomer, unassigned) [Compound 5], at NK1 Receptor, the IC50 is 0.437 nM. In addition, in series [1], the “Human in vitro Clint” value was more than 200 mL/min/g.

`Cc1cc([C@@H](C)N(C)C(=O)N2CCN3C(=O)CC[C@H]3[C@@H]2c2ccsc2C)cc(C(F)(F)F)c1` [Compound 55, (1S,8aS)—N-methyl-N—((R)-1-(3-methyl-5-(trifluoromethyl)phenyl)ethyl)-1-(2-methylthiophen-3-yl)-6-oxohexahydropyrrolo[1,2-a]pyrazine-2(1H)-carboxamide]: the IC50 on NK1 Receptor was 1.58 nM. Further, the “Human in vitro Clint” value in series [1] was more than 200 mL/min/g.

As for `COc1ccc([C@H]2[C@@H]3CC(CCO)(CCO)C(=O)N3CCN2C(=O)N(C)[C@H](C)c2cc(C)cc(C(F)(F)F)c2)c(C)c1` [Compound 17, (1S,8aS)-7,7-bis(2-hydroxyethyl)-1-(4-methoxy-2-methylphenyl)-N-methyl-N—((R)-1-(3-methyl-5-(trifluoromethyl)phenyl)ethyl)-6-oxohexahydropyrrolo[1,2-a]pyrazine-2(1H)-carboxamide], on NK1 Receptor, the IC50 was found to be 0.799 nM. Also, the “Human in vitro Clint” value in series [1] is more than 200 mL/min/g.

Turning to `Cc1cc(F)ccc1[C@H]1[C@@H]2CCC(=O)N2CCN1C(=O)N(C)[C@H](C)c1cc(C(C)C)cc(C(F)(F)F)c1` [Compound 22, (1S,8aS)-1-(4-fluoro-2-methylphenyl)-N-(1-(3-isopropyl-5-(trifluoromethyl)phenyl)ethyl)-N-methyl-6-oxohexahydropyrrolo[1,2-a]pyrazine-2(1H)-carboxamide], at NK1 Receptor, the IC50 amounted to 0.197 nM. The “Human in vitro Clint” value in series [1] is more than 200 mL/min/g.
